Measured values published in article PMC3025325, “Identification of a κ-opioid agonist as a potent and selective lead for drug development against human African trypanosomiasis” (Biochemical Pharmacology, 2010).
Structures can show the parent of a compound that is named as a salt. Where two headings read alike, the source gives them in different places.

What was measured:
T. brucei [1] = assay: DMSO tolerance of the resazurin assay, T. brucei; type: cell-based
Experimental: (§1) DMSO was serially diluted across a 96-well plate in 200 μl of the appropriate medium. For T. brucei, 100 μl aliquots were then transferred to a plate containing 100 μl cells at 2 × 10^3 ml^−1. Human fibroblasts were plated at 2 × 10^4 ml^−1 in 100 μl of medium and incubated overnight to allow cells to adhere before the addition of medium containing DMSO (100 μl) over a range of concentrations. Parasites and mammalian cells were then incubated for 3 days, after which 20 μl 500-μM resazurin was added to each well. Plates were incubated for a further 4 h before measuring fluorescence as above.

human fibroblasts (MRC5) = assay: DMSO tolerance of the resazurin assay, human fibroblasts; type: cell-based
Experimental: as §1

[2] = tested on: bloodstream forms of Trypanosoma brucei; assay: Resazurin cell viability assay, EC50 determinations against T. brucei; type: cell-based, T. b. brucei (strain 427)
MRC5 cells = assay: Resazurin cell viability counter-screen, EC50 determinations against mammalian cells; type: cell-based, human; conditions: for EC50: read-out: EC50 vs. MRC5
T. brucei [3] = tested on: T. brucei
T. brucei [4] = assay: microbe, parasite or virus in culture; conditions: Trypanosoma brucei, read-out: EC50 by direct counting of cell growth
[5] = Trypanosoma brucei, 72 h, read-out: EC50 of standard drugs against T. brucei
[6] = read-out: EC50 of standard drugs against T. brucei

## C[S+](C)[O-] [DMSO]
T. brucei [1]; 3 days incubation
  IC50 of DMSO: 0.80 ± 0.06 % (v/v)
T. brucei [1]; DMSO 0.5%
  Attenuation of fluorescence: 20%
Human fibroblasts (MRC5); 3 days incubation
  IC50 of DMSO: 1.04 ± 0.08 % (v/v)
Human fibroblasts (MRC5); DMSO 0.5%
  Attenuation of fluorescence: 15%

## N=C(N)c1ccc(OCCCCCOc2ccc(C(=N)N)cc2)cc1 [Pentamidine isethionate]
[2]
  EC99 (calculated/predicted from EC50 and Hill slope): 37 nM
[2]; [5]
  EC50: 8.1 ± 0.54 nM
[2]; [6]
  EC50: 8 nM
MRC5 cells
  Selectivity: 3400
T. brucei [3]
  Effect on T. brucei culture growth: cytocidal effect
  Time for cell density to drop below the limit of detection (1 × 10^3 cells ml−1): ≤ 40 h

## CC[C@]1(O)C[C@@H]2CN(CCc3c([nH]c4ccccc34)[C@@](C(=O)OC)(c3cc4c(cc3OC)N(C)[C@H]3[C@@](O)(C(=O)OC)[C@H](OC(C)=O)[C@]5(CC)C=CCN6CC[C@]43[C@@H]65)C2)C1.O=S(=O)(O)O [Vinblastine sulfate salt]
[2]; read-out: EC50 vs. T. brucei
  EC50: 94 ± 6 nM
MRC5 cells
  Selectivity: 8.3
  EC50: 780 ± 910 nM

## CC[C@]1(O)C[C@H]2CN(CCc3c([nH]c4ccccc34)[C@@](C(=O)OC)(c3cc4c(cc3OC)N(C=O)[C@H]3[C@@](O)(C(=O)OC)[C@H](OC(C)=O)[C@]5(CC)C=CCN6CC[C@]43[C@@H]65)C2)C1 [Vincristine sulfate]
[2]; Trypanosoma brucei, 72 h, LOPAC hits (library screening), 3 days incubation, mean of 3 determinations weighted to standard error, read-out: EC50 vs. T. brucei
  EC50: 30 ± 1 nM
MRC5 cells
  Selectivity: 0.02
MRC5 cells; Homo sapiens, MRC5, 72 h
  EC50: 0.6 ± 1 nM

## NCCCC(N)(C(=O)O)C(F)F (stereo not drawn) [eflornithine, difluoromethylornithine]
[2]
  EC99 (calculated from EC50 and Hill slope): 77000 nM
[2]; [5]
  EC50: 22400 ± 1100 nM
[2]; [6]
  EC50: 22000 nM
T. brucei [3]; 10 × EC50
  Time after which cell growth was arrested: 30 h
T. brucei [3]; 10 × EC50, 3 days
  Effect on T. brucei culture growth: cytostatic effect
T. brucei [4]
  EC50: 17100 ± 100 nM

## Dequalinium analogue, C-14 linker
[2]; read-out: EC50 vs. T. brucei
  EC50: 70 ± 4.6 nM
MRC5 cells
  Selectivity: 14

## Oligomycin A
[2]; read-out: EC50 vs. T. brucei
  EC50: 150 ± 3.1 nM
MRC5 cells
  Selectivity: 120
  Selectivity / specificity for T. brucei over human fibroblasts: greater than 100 fold
